From ChEMBL document CHEMBL1240454, “1,3-Dioxolane-based ligands incorporating a lactam or imide moiety: structure-affinity/activity relationship at alpha1-adrenoceptor subtypes and at 5-HT1A receptors” (Eur J Med Chem, 2010)

biological target: T1, Alpha-1A adrenergic receptor (Homo sapiens, UniProt P35348)
T1 sequence (P35348 whole entry): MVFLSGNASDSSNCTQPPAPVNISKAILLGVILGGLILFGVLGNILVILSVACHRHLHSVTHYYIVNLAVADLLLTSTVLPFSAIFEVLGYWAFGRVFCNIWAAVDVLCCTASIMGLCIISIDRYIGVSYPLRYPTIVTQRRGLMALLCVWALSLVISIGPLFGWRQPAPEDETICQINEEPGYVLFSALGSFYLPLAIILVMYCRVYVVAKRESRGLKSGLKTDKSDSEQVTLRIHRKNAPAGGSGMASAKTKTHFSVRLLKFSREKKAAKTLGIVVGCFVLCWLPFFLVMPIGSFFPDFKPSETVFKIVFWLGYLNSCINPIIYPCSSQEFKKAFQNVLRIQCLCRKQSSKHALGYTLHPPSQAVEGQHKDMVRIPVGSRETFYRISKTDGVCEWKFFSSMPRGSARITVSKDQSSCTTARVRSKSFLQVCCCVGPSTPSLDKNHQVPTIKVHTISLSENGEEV
Description: Displacement [3H]prazosin of human recombinant alpha1A adrenergic receptor expressed in CHO cells by rapid filtration technique

Row | Compound | Ki [nM]
1 | COc1ccccc1N1CCN(C[C@H]2CO[C@@](CN3C(=O)CCC3=O)(c3ccccc3)O2)CC1 (relative stereo) | 2.88
2 | COc1ccccc1N1CCN(C[C@@H]2CO[C@@](CN3C(=O)CCC3=O)(c3ccccc3)O2)CC1 (relative stereo) | 40.7
3 | COc1ccccc1N1CCN(C[C@H]2CO[C@@](CN3C(=O)CCCC3=O)(c3ccccc3)O2)CC1 (relative stereo) | 6.61
4 | COc1ccccc1N1CCN(C[C@@H]2CO[C@@](CN3C(=O)CCCC3=O)(c3ccccc3)O2)CC1 (relative stereo) | 21.4
5 | COc1ccccc1N1CCN(C[C@H]2CO[C@@](CN3C(=O)CC4(CCCC4)CC3=O)(c3ccccc3)O2)CC1 (relative stereo) | 2.04

The next lines start with the values.

Row | Ki [nM] | Compound
6 | 0.631 | COc1ccccc1N1CCN(C[C@H]2CO[C@@](CN3CCCCCC3=O)(c3ccccc3)O2)CC1 (relative stereo)
7 | 26.9 | COc1ccccc1N1CCN(C[C@@H]2CO[C@@](CN3CCCCCC3=O)(c3ccccc3)O2)CC1 (relative stereo)

species: Rattus norvegicus; test: Selectivity for adrenergic Alpha-1B receptor in Wistar rat spleen over adrenergic alpha1D receptor in Wistar rat thoracic aorta; assay type: tissue-based

Row | Compound | Selectivity ratio
8 | COc1ccccc1N1CCN(C[C@H]2CO[C@@](CN3CCCCCC3=O)(c3ccccc3)O2)CC1 (relative stereo) | 0.1
9 | COc1ccccc1N1CCN(C[C@@H]2CO[C@@](CN3CCCCCC3=O)(c3ccccc3)O2)CC1 (relative stereo) | 0.5
10 | COc1ccccc1N1CCN(C[C@H]2CO[C@@](CN3C(=O)CCC3=O)(c3ccccc3)O2)CC1 (relative stereo) | 0.2
11 | COc1ccccc1N1CCN(C[C@@H]2CO[C@@](CN3C(=O)CCC3=O)(c3ccccc3)O2)CC1 (relative stereo) | 5
12 | COc1ccccc1N1CCN(C[C@H]2CO[C@@](CN3C(=O)CCCC3=O)(c3ccccc3)O2)CC1 (relative stereo) | 0.1
13 | COc1ccccc1N1CCN(C[C@@H]2CO[C@@](CN3C(=O)CCCC3=O)(c3ccccc3)O2)CC1 (relative stereo) | 2
14 | COc1ccccc1N1CCN(C[C@H]2CO[C@@](CN3C(=O)CC4(CCCC4)CC3=O)(c3ccccc3)O2)CC1 (relative stereo) | 0.2

biological target: T2, Alpha-1A adrenergic receptor (Rattus norvegicus) (UniProt P43140); test: Antagonist activity at adrenergic alpha1A receptor in Wistar rat prostatic vas deferens assessed as inhibition of (-)-noradrenaline-induced tissue contraction treated 30 mins before (-)noradrenalin challenge; assay type: functional, tissue-based
T2 sequence (whole entry): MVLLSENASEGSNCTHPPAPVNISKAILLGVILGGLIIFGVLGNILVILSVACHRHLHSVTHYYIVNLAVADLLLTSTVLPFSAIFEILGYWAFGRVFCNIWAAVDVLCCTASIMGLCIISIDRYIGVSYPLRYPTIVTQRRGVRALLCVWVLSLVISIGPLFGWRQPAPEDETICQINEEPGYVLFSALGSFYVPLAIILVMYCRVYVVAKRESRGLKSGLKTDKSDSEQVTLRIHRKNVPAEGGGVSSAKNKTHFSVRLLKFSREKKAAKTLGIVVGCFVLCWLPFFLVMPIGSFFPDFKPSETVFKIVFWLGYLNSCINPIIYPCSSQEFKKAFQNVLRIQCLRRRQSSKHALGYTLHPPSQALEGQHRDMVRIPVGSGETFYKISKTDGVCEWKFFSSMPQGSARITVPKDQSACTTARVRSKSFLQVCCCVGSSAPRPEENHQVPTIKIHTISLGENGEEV

Row | Compound | pKb
15 | COc1ccccc1N1CCN(C[C@H]2CO[C@@](CN3C(=O)CCC3=O)(c3ccccc3)O2)CC1 (relative stereo) | 7.45
16 | COc1ccccc1N1CCN(C[C@@H]2CO[C@@](CN3C(=O)CCC3=O)(c3ccccc3)O2)CC1 (relative stereo) | 7.32
17 | COc1ccccc1N1CCN(C[C@H]2CO[C@@](CN3C(=O)CCCC3=O)(c3ccccc3)O2)CC1 (relative stereo) | 7.09
18 | COc1ccccc1N1CCN(C[C@@H]2CO[C@@](CN3C(=O)CCCC3=O)(c3ccccc3)O2)CC1 (relative stereo) | 7.36
19 | COc1ccccc1N1CCN(C[C@H]2CO[C@@](CN3C(=O)CC4(CCCC4)CC3=O)(c3ccccc3)O2)CC1 (relative stereo) | 7.72

More lines, now with the values ahead:

Row | pKb | Compound
20 | 8.97 | COc1ccccc1N1CCN(C[C@H]2CO[C@@](CN3CCCCCC3=O)(c3ccccc3)O2)CC1 (relative stereo)
21 | 7.18 | COc1ccccc1N1CCN(C[C@@H]2CO[C@@](CN3CCCCCC3=O)(c3ccccc3)O2)CC1 (relative stereo)

biological target: T3, 5-hydroxytryptamine receptor 1A (Homo sapiens, UniProt P08908)
T3 sequence (P08908 whole entry): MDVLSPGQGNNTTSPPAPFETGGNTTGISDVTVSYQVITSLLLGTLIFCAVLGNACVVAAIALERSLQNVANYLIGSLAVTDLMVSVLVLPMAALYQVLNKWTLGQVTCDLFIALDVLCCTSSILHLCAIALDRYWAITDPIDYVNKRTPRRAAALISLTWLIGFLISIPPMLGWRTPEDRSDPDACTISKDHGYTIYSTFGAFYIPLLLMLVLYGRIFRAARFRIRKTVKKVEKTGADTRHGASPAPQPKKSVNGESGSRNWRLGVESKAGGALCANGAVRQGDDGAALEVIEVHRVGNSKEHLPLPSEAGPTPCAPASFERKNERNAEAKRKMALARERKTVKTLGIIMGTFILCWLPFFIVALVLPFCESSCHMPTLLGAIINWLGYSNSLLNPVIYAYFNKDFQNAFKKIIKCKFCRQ

Row | Compound | Ki [nM]
22 | COc1ccccc1N1CCN(C[C@H]2CO[C@@](CN3C(=O)CCC3=O)(c3ccccc3)O2)CC1 (relative stereo) | 5.13
23 | COc1ccccc1N1CCN(C[C@@H]2CO[C@@](CN3C(=O)CCC3=O)(c3ccccc3)O2)CC1 (relative stereo) | 25.7
24 | COc1ccccc1N1CCN(C[C@H]2CO[C@@](CN3C(=O)CCCC3=O)(c3ccccc3)O2)CC1 (relative stereo) | 3.16
25 | COc1ccccc1N1CCN(C[C@@H]2CO[C@@](CN3C(=O)CCCC3=O)(c3ccccc3)O2)CC1 (relative stereo) | 44.7
26 | COc1ccccc1N1CCN(C[C@H]2CO[C@@](CN3C(=O)CC4(CCCC4)CC3=O)(c3ccccc3)O2)CC1 (relative stereo) | 2.63

Results, then the compound that gave them:

Row | Ki [nM] | Compound
27 | 5.62 | COc1ccccc1N1CCN(C[C@H]2CO[C@@](CN3CCCCCC3=O)(c3ccccc3)O2)CC1 (relative stereo)
28 | 7.24 | COc1ccccc1N1CCN(C[C@@H]2CO[C@@](CN3CCCCCC3=O)(c3ccccc3)O2)CC1 (relative stereo)

biological target: T4, Alpha-1D adrenergic receptor (Homo sapiens, UniProt P25100)
T4 sequence (P25100 whole entry): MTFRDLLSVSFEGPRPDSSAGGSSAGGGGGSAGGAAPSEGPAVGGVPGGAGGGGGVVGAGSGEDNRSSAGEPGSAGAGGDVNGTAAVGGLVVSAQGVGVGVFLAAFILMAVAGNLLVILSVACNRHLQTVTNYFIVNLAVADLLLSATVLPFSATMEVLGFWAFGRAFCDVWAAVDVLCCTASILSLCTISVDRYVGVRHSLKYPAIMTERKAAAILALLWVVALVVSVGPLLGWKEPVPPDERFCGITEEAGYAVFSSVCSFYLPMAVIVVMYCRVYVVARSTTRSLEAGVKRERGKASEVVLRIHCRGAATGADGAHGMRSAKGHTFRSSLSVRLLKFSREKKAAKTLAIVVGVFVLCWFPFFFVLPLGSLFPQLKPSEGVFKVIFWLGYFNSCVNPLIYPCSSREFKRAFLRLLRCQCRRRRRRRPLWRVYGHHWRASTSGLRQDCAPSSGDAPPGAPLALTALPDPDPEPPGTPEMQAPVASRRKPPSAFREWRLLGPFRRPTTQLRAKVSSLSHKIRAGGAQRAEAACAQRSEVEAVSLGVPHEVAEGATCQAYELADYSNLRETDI
Description: Displacement [3H]prazosin of human recombinant Alpha-1D adrenergic receptor expressed in CHO cells by rapid filtration technique

Row | Compound | Ki [nM]
29 | COc1ccccc1N1CCN(C[C@H]2CO[C@@](CN3C(=O)CCC3=O)(c3ccccc3)O2)CC1 (relative stereo) | 39.8
30 | COc1ccccc1N1CCN(C[C@@H]2CO[C@@](CN3C(=O)CCC3=O)(c3ccccc3)O2)CC1 (relative stereo) | 16.2
31 | COc1ccccc1N1CCN(C[C@H]2CO[C@@](CN3C(=O)CCCC3=O)(c3ccccc3)O2)CC1 (relative stereo) | 32.4
32 | COc1ccccc1N1CCN(C[C@@H]2CO[C@@](CN3C(=O)CCCC3=O)(c3ccccc3)O2)CC1 (relative stereo) | 8.51
33 | COc1ccccc1N1CCN(C[C@H]2CO[C@@](CN3C(=O)CC4(CCCC4)CC3=O)(c3ccccc3)O2)CC1 (relative stereo) | 4.79

The remaining lines, values ahead:

Row | Ki [nM] | Compound
34 | 4.07 | COc1ccccc1N1CCN(C[C@H]2CO[C@@](CN3CCCCCC3=O)(c3ccccc3)O2)CC1 (relative stereo)
35 | 2.51 | COc1ccccc1N1CCN(C[C@@H]2CO[C@@](CN3CCCCCC3=O)(c3ccccc3)O2)CC1 (relative stereo)

biological target: T5, Alpha-1B adrenergic receptor (Rattus norvegicus) (UniProt P15823); test: Antagonist activity at adrenergic Alpha-1B receptor in Wistar rat spleen assessed as inhibition of […]-induced tissue contraction treated 30 mins before […] challenge; assay type: functional, tissue-based
T5 sequence (whole entry): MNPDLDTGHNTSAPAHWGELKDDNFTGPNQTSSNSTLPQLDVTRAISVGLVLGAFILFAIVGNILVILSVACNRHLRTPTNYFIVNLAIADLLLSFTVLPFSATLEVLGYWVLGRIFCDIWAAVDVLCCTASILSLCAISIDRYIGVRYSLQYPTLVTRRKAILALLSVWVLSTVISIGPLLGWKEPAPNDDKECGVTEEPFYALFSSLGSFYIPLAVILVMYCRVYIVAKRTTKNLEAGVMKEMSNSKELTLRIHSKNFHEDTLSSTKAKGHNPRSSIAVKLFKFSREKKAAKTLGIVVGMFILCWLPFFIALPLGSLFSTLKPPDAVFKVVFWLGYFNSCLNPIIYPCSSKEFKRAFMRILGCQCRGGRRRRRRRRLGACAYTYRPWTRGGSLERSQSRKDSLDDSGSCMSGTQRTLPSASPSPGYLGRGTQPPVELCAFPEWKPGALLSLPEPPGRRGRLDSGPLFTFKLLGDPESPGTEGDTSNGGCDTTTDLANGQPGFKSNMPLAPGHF

Row | Compound | pKb
36 | COc1ccccc1N1CCN(C[C@H]2CO[C@@](CN3C(=O)CCC3=O)(c3ccccc3)O2)CC1 (relative stereo) | 7.04
37 | COc1ccccc1N1CCN(C[C@@H]2CO[C@@](CN3C(=O)CCC3=O)(c3ccccc3)O2)CC1 (relative stereo) | 7.11
38 | COc1ccccc1N1CCN(C[C@H]2CO[C@@](CN3C(=O)CCCC3=O)(c3ccccc3)O2)CC1 (relative stereo) | 7.12
39 | COc1ccccc1N1CCN(C[C@@H]2CO[C@@](CN3C(=O)CCCC3=O)(c3ccccc3)O2)CC1 (relative stereo) | 7.35
40 | COc1ccccc1N1CCN(C[C@H]2CO[C@@](CN3C(=O)CC4(CCCC4)CC3=O)(c3ccccc3)O2)CC1 (relative stereo) | 7.4

More lines, now with the values ahead:

Row | pKb | Compound
41 | 8.42 | COc1ccccc1N1CCN(C[C@H]2CO[C@@](CN3CCCCCC3=O)(c3ccccc3)O2)CC1 (relative stereo)
42 | 8.08 | COc1ccccc1N1CCN(C[C@@H]2CO[C@@](CN3CCCCCC3=O)(c3ccccc3)O2)CC1 (relative stereo)
